# Assay results as given in patent US20250313535A1, “ALPHA 4 BETA 7 INTEGRIN MODULATORS AND USES THEREOF” (DICE MOLECULES SV, INC., priority 2022, published 2025).
# Biological target: α4β7 integrin (Homo sapiens (Human), UniProt P13612+P26010)
# Assay: Integrin Adhesion Assay: Protocol 4 (MAdCAM-coated plate, RPMI-8866 cells with stable LOF mutation of the ITGB1 gene)
# Assay type: cell-based
# Conditions: Protocol 4; RPMI-8866 cells with LOF mutation of ITGB1, MAdCAM; read-out: Mean IC50 α4β7 KO
# Protocol: (§1) Integrin Adhesion Assay Using Genetically Modified Cells Generating Stable Cell Lines with ITGB1 or ITGB7 Knockout (Protocol 4 and Protocol 5)
# (§2) To obtain subclones of the RPMI-8866 cell line (Sigma-Aldrich, St. Louis, MO) that were individually deficient in either integrin β1 or integrin β 7, CRISPR/Cas9 technology was employed (PMID: 30108345). Specifically, a Neon™ Transfection System System 10 μL Kit and the Neon™ Transfection device (both from ThermoFisher Scientific) were used.
# (§3) The protocol was performed following the manufacturer instructions, described in https://www.thermofisher.com/document-connect/document-connect.html?url=https % 3A%2F%2F assets.thermofisher.com%2FTFS-Assets%2FLSG%2Fmanuals%2FMAN0017066_TrueCut Cas9_Protein_v2_UG.pdf, which is incorporated by reference herein in its entirety.
# (§4) RPMI-8866 cells were transferred to a flask the day before transfection, at a confluence of 5×10^5 cells/mL. The cells were washed with PBS and resuspended in buffer R (Neon™ Transfection System, Invitrogen) to 2×10^5 cells/10 uL for each reaction. The TrueCut™ HiFi Cas9 Protein (1250 ng per reaction) was mixed with TrueGuide™ sgRNA (7.5 pmoles each/pool of 3 sequences, table 1) (ThermoFisher Scientific). This mix was combined with the RPMI-8866 cells and electroporated on the Neon system at 1700V/20 ms/1 pulse. Transfected cells were allowed to recover in 500 μL pre-warmed cRMPI media (RPMI-1640 media with 10% FBS, 100 U/ml Penicillin-Streptomycin) at 37° C., 5% CO2 for 24 hours. At that time, an extra 500 μL of pre-warmed cRMPI media was added, and cells were incubated for another 24 hours.
# (§5) For flow cytometry analysis, 100 μL of the transfected cells were collected and stained with anti-itga4 (Clone: 9F10, PE, BD Pharmingen™), anti-itgb 1 (Clone: (TS2/16), Super Bright 436, eBioscience), anti-itgb7 (Clone: FIB504, Brilliant Violet 650, BD Pharmingen™) and viability dye (LIVE/DEAD™ Fixable Green Dead Cell Stain, Invitrogen™). An Attune NxT Flow Cytometer was used to analyze the CRISPR-transfected cells. The flow cytometry results were analyzed using FlowJo™ v10.8.1 Software (BD Life Sciences). Fluorescence minus one (FMO) controls were used to select appropriate gates for data analysis.
# (§6) To generate an individual clones of cells deficient in either ITGB7 or ITGB1 by limiting dilution assay, the transfected cells were resuspended at 5 cells/mL and seeded in 384 well plates. Outgrowth of clones was monitored using a microscope, and 24 clones were transferred for expansion. Expression of either integrin was verified by flow cytometry in each of the clones. One clone of each integrin b7 or the integrin b1 knockout was chosen, expanded and aliquots were frozen in vapor phase liquid nitrogen.
# Integrin Adhesion Assay: Protocol 4
# (§7) MAdCAM (R&D Systems, 0.1 ug) was diluted in 50 μL PBS, added to each well of an opaque ELISA plate (Thermo), and incubated overnight at 4° C. Coated plates were washed once with PBS and then blocked with 200 μL of assay buffer (10 mM HEPES, 150 mM NaCl, 1 mM MnCl2, 0.1 mM CaCl2), 1% BSA) for 1 hour at 37° C. and 5% CO2. After incubation, buffer was aspirated from the plates and 50 μL of fresh assay buffer was added. Compounds were added using a compounds dispenser (Tecan), and DMSO concentration was normalized to 1% across each plate. 50 μL of RPMI-8866 cells with a stable loss of function (LOF) mutation of the ITGB1 gene (2×10^6 per mL) were added to each well and the plates were incubated for 1 hour at 37° C. at a CO2 concentration of 5%. After incubation, plates were allowed to cool to RT for 10 minutes before being washed four times in assay buffer by an automated plate washer (BioTek). After washing, 100 μL of a 1:1 mixture of assay buffer and CellTiter GLO 2.0 reagent (Promega) were added to each well. Plates were mixed for 2 minutes at 1000 rpm and then allowed to incubate an additional 10 minutes before reading out luminescence on a Tecan Spark plate reader. […]
# Chain of α4β7 integrin (P13612 34-1032): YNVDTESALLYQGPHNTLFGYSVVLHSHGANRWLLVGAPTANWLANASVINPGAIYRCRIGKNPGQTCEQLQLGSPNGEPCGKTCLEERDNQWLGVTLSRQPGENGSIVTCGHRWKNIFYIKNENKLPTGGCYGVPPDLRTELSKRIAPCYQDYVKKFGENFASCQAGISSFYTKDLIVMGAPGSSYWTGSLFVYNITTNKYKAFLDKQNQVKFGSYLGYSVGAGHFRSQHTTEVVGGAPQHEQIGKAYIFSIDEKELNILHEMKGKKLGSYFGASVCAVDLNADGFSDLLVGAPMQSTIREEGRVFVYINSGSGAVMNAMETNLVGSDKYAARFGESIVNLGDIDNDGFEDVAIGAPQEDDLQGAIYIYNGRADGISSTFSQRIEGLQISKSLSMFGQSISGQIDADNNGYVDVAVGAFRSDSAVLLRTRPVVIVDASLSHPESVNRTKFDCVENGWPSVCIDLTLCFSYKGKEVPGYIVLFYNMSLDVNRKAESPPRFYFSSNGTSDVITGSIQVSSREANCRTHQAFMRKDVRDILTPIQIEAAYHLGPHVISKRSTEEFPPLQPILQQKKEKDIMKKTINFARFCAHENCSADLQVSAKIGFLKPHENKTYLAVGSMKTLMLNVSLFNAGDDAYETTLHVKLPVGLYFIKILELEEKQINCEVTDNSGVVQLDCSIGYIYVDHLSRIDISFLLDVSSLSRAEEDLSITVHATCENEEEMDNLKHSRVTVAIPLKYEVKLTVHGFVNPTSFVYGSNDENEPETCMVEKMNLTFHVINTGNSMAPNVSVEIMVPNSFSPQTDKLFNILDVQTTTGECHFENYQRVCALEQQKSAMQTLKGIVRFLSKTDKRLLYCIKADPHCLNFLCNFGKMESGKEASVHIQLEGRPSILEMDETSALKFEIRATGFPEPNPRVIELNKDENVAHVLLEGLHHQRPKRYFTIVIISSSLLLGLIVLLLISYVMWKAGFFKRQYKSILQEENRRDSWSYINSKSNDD
# Chain of α4β7 integrin (P26010 20-798): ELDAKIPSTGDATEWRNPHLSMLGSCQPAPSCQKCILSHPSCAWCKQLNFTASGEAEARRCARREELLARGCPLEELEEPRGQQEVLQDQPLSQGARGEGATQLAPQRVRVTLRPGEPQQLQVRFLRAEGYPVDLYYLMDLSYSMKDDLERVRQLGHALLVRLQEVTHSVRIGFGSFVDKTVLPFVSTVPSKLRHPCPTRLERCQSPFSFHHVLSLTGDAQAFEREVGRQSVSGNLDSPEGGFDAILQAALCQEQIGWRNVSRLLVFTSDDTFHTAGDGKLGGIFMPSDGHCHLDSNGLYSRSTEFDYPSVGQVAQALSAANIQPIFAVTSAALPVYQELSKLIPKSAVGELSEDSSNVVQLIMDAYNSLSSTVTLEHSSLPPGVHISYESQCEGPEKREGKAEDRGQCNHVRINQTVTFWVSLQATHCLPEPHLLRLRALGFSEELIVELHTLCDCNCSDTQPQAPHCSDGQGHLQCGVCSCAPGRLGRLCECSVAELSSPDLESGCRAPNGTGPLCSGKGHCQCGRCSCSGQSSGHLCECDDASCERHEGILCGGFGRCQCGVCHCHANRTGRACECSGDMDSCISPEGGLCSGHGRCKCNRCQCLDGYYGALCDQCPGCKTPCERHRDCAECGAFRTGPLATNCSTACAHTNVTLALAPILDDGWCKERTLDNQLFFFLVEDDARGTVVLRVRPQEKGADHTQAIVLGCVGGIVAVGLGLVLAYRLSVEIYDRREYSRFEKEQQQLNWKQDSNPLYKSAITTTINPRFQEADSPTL
row,IC50 [µM],Structure (SMILES)
1,< 0.01,CC1(C)CCN(Cc2cnc(-c3cccc4c(C[C@H](NC(=O)C5(C(F)(F)F)CCN(C6COC6)CC5)C(=O)O)cccc34)c3ccccc23)CC1 [Compound 686]
2,0.01 to 0.1,Cc1cccc(F)c1C(=O)N[C@@H](Cc1cccc2c(-c3cc(CN4CCCCC4)ccc3C(F)(F)F)cccc12)C(=O)O [Compound 689]
3,< 0.01,COc1cc2c(c(C(F)(F)F)c1-c1cccc3c(C[C@H](NC(=O)C4(C(F)(F)F)CCN(CC(F)(F)F)CC4)C(=O)O)cccc13)CN(C)CC2 [Compound 736]

# Same assay, conditions: RPMI-8866 cells with stable LOF mutation of the ITGB1 gene; read-out: Mean IC50 α4β7 KO^a
row,Structure (SMILES),IC50 [µM]
1,O=C(N[C@@H](Cc1cccc2c(-c3cccc4ccncc34)cccc12)C(=O)O)c1c(F)cccc1F [Compound 295],> 1
2,CO[C@H]1C[C@@H](c2cc(F)c(C(=O)N[C@@H](Cc3cccc4c(-c5c(C(F)(F)F)c6ccccc6n(C)c5=O)cccc34)C(=O)O)c(F)c2)N(C)C1 [Compound 466],0.1 to 1
3,CO[C@H]1C[C@H](c2cc(F)c(C(=O)N[C@@H](Cc3cccc4c(-c5c(C(F)(F)F)c6ccccc6n(C)c5=O)cccc34)C(=O)O)c(F)c2)N(C)C1 [Compound 467],0.1 to 1
4,Cn1c(=O)c(-c2cccc3c(C[C@H](NC(=O)c4c(F)ccc(C5CC5)c4F)C(=O)O)cccc23)c(C(F)(F)F)c2ccccc21 [Compound 488],0.1 to 1
5,CC(C)CC1CC(C)(C(=O)N[C@@H](Cc2cccc3c(-c4c(C(F)(F)F)c5ccccc5n(C)c4=O)cccc23)C(=O)O)CCN1CC(F)(F)F (stereo partly shown) [Compound 529],> 1
6,COc1cccc(CN2CCCCC2)c1-c1cccc2c(C[C@H](NC(=O)c3c(F)cccc3C3CC3)C(=O)O)cccc12 [Compound 541],< 0.01
7,COc1ccc(CN2CC3CCC(C2)O3)c(OC)c1-c1cccc2c(C[C@H](NC(=O)c3c(C)cccc3F)C(=O)O)cccc12 [Compound 568],0.01 to 0.1
8,CCCS(=O)(=O)N1CCC(C(=O)N[C@@H](Cc2cccc3c(-c4c(OC)ccc(CN5CCC(F)(F)CC5)c4OC)cccc23)C(=O)O)(C(F)(F)F)CC1 [Compound 617],0.1 to 1
9,COc1ccc(CN2CCCC(F)C2)c(OC)c1-c1cccc2c(C[C@H](NC(=O)c3c(C)cc(C45CCOCC4C5)cc3F)C(=O)O)cccc12 (stereo partly shown) [Compound 663],< 0.01
10,O=C(N[C@@H](Cc1cccc2c(-c3ncc(CN4CCCCC4)c4ccccc34)cccc12)C(=O)O)c1c(F)cccc1F [Compound 678],0.01 to 0.1

# The next lines start with the values.
row,IC50 [µM],Structure (SMILES)
1,> 1,Cn1c(=O)c(-c2cccc3c(C[C@H](NC(=O)C45CC(NCC(F)(F)F)(C4)C5)C(=O)O)cccc23)c(C(F)(F)F)c2ccccc21 [Compound 446]
2,> 1,CC1CC(C)(C(=O)N[C@@H](Cc2cccc3c(-c4c(C(F)(F)F)c5ccccc5n(C)c4=O)cccc23)C(=O)O)CCN1CC(F)(F)F (stereo partly shown) [Compound 528]

# Biological target: α4β1 integrin (Homo sapiens (Human), UniProt P05556+P13612)
# Assay: Integrin Adhesion Assay: Protocol 5 (VCAM-coated plate, RPMI-8866 cells with stable LOF mutation of the ITGB7 gene)
# Assay type: cell-based
# Conditions: Protocol 5; RPMI-8866 cells with LOF mutation of ITGB7, VCAM; read-out: Mean IC50 α4β1 KO
# Protocol: as §1, §2, §3, §4, §5, §6
# Integrin Adhesion Assay: Protocol 5
# as §7, with “VCAM” for “MAdCAM”, “by” for “using a”, “(Tecan)” for “(Tecan),”, “LOF” for “loss of function (LOF)”, “ITGB7” for “ITGB1”, “and 5% CO2.” for “at a CO2 concentration of 5%.”
# Chain of α4β1 integrin (P13612 34-1032): as the sequence (P13612 34-1032) above
# Chain of α4β1 integrin (P05556 21-798): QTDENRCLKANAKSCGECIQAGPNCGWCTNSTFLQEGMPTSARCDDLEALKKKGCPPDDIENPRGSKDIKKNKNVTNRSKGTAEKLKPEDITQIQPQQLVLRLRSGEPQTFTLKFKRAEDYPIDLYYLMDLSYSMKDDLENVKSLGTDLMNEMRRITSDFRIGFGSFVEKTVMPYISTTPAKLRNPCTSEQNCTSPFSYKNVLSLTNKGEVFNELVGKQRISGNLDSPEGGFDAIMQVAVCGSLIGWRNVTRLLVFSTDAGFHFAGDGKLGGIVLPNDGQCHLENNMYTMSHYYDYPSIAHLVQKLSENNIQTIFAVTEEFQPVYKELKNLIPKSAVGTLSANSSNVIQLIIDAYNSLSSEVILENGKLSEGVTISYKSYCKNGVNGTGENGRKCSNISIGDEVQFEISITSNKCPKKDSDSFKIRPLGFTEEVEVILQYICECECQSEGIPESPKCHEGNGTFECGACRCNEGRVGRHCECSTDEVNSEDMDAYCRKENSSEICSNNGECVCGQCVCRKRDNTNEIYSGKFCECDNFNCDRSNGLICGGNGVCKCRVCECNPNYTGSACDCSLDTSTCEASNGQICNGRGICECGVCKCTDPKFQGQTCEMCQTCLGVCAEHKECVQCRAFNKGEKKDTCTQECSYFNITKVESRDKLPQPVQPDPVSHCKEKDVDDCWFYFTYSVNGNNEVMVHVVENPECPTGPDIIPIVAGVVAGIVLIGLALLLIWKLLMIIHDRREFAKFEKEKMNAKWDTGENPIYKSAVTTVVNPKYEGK
row,Structure (SMILES),IC50 [µM]
1,COc1cccc(CN2CCCCC2)c1-c1cccc2c(C[C@H](NC(=O)c3c(F)cccc3-c3ccccc3)C(=O)O)cccc12 [Compound 693],> 1
2,Cn1c(=O)c(-c2cccc3c(C[C@H](NC(=O)c4c(F)cccc4F)C(=O)O)cccc23)c(C(F)(F)F)c2cc(CCN3CC(F)C3)ccc21 [Compound 715],> 1
3,Cc1cccc(F)c1C(=O)N[C@@H](Cc1cccc2c(-c3ccccc3OCCN3CCCCC3)cccc12)C(=O)O [Compound 1007],> 1
4,Cc1cccc(F)c1C(=O)N[C@@H](Cc1cccc2c(-c3ncc(CN4CCC(F)(F)CC4)c4ccccc34)cccc12)C(=O)O [Compound 1031],> 1
5,Cc1cccc(F)c1C(=O)N[C@@H](Cc1cccc2c(-c3c(C(F)(F)F)c4cc(CN5CCC(F)(F)CC5)ccc4n(C)c3=O)cccc12)C(=O)O [Compound 1032],> 1

# Now from value to molecule:
row,IC50 [µM],Structure (SMILES)
1,> 1,O=C(O)[C@H](Cc1cccc2c(-c3c(CN4CCCCC4)ccc4cccnc34)cccc12)NC(=O)C1(C(F)(F)F)CCN(CC(F)(F)F)CC1 [Compound 767]
2,> 1,COc1c(-c2cccc3c(C[C@H](NC(=O)C4(C(F)(F)F)CCN(CC(F)(F)F)CC4)C(=O)O)cccc23)cc(CN2CCCCC2)cc1C(F)(F)F [Compound 769]
3,> 1,O=C(O)[C@H](Cc1cccc2c(-c3cccc4ocnc34)cccc12)NC(=O)C1(C(F)(F)F)CCN(CC(F)(F)F)CC1 [Compound 770]
4,> 1,O=C(O)[C@H](Cc1cccc2c(-c3cccc4ncoc34)cccc12)NC(=O)C1(C(F)(F)F)CCN(CC(F)(F)F)CC1 [Compound 771]
5,> 1,O=C(O)[C@H](Cc1cccc2c(-c3cccc4cnoc34)cccc12)NC(=O)C1(C(F)(F)F)CCN(CC(F)(F)F)CC1 [Compound 772]
6,> 1,COc1cc2ccccc2cc1-c1cccc2c(C[C@H](NC(=O)C3(C(F)(F)F)CCN(CC(F)(F)F)CC3)C(=O)O)cccc12 [Compound 775]
7,> 1,COc1c(-c2cccc3c(C[C@H](NC(=O)C4(C(F)(F)F)CCN(CC(F)(F)F)CC4)C(=O)O)cccc23)ccc2ccccc12 [Compound 776]
8,0.1 to 1,COc1ccc(CCN2CCCC(F)C2)c(OC)c1-c1cccc2c(C[C@H](NC(=O)C3(C(F)(F)F)CCN(CC(F)(F)F)CC3)C(=O)O)cccc12 (stereo partly shown) [Compound 826]
9,> 1,CN(Cc1cnc(-c2cccc3c(C[C@H](NC(=O)C4(C(F)(F)F)CCN(CC(F)(F)F)CC4)C(=O)O)cccc23)c2ccccc12)CC(F)(F)F [Compound 895]
10,> 1,CN(Cc1cnc(-c2cccc3c(C[C@H](NC(=O)C4(C(F)(F)F)CCN(CC(F)F)CC4)C(=O)O)cccc23)c2ccccc12)CC(F)(F)F [Compound 923]
11,0.1 to 1,CC[C@@H]1CCCCN1Cc1cnc(-c2cccc3c(C[C@H](NC(=O)C4(C(F)(F)F)CCN(CC(F)F)CC4)C(=O)O)cccc23)c2ccccc12 [Compound 932]
12,0.1 to 1,COc1ccc(CN2CCC(C(F)(F)F)CC2)cc1-c1cccc2c(C[C@H](NC(=O)C3(C(F)(F)F)CCN(CC(F)F)CC3)C(=O)O)cccc12 [Compound 939]

# Same assay, conditions: RPMI-8866 cells with stable LOF mutation of the ITGB7 gene; read-out: Mean IC50 α4β1 KO^b
row,IC50 [µM],Structure (SMILES)
1,> 1,CN(C)Cc1cccc2c(-c3cccc4c(C[C@H](NC(=O)c5c(F)cc(N6CCOC[C@@H]6C(F)(F)F)cc5CN5CCC(N(C)C)CC5)C(=O)O)cccc34)nccc12 [Compound 434]
2,0.1 to 1,Cn1c(=O)c(-c2cccc3c(C[C@H](NC(=O)C4(C(F)(F)F)CCN([C@H]5CCOC5)CC4)C(=O)O)cccc23)c(C(F)(F)F)c2ccccc21 [Compound 458]
